Active and inactive are the calls of the source. The rule behind the calls is not given here.
Tests used:
[1] = Selectivity index, ratio of IC50 for equine serum BuChE to IC50 for electric eel AChE
PC-12 = assay: Cytotoxicity against rat PC12 cells assessed as reduction in cell viability at 100 uM after 24 hrs by MTT assay relative to control; assay type: cell-based; conditions: pc-12, 24 h
Homo sapiens [2] = species: Homo sapiens; assay: Selectivity index, ratio of IC50 for human serum BuChE to IC50 for human AChE
[3] = target: T1, Amine oxidase [flavin-containing] A (Homo sapiens, UniProt P21397); assay: Inhibition of recombinant human MAOA at 10 uM using p-tyramine as substrate after 15 mins by resorufin dye-based fluorometric method relative to control; conditions: 0.25 h
T1 sequence (P21397 whole entry): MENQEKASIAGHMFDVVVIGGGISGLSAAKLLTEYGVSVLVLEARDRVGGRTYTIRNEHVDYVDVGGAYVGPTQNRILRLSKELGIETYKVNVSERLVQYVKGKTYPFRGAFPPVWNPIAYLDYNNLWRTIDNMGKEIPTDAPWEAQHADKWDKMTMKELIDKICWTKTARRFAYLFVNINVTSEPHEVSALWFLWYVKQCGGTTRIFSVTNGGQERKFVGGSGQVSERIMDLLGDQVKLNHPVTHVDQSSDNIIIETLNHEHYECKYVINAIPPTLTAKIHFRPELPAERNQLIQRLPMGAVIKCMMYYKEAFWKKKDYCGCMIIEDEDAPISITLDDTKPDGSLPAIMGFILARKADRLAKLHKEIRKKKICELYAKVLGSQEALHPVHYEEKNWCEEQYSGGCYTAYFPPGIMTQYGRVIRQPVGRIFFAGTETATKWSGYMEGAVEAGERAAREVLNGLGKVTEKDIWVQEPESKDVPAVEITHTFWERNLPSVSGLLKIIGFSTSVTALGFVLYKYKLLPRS

[4] = target: T2, Amine oxidase [flavin-containing] B (Homo sapiens, UniProt P27338)
T2 sequence (P27338 whole entry): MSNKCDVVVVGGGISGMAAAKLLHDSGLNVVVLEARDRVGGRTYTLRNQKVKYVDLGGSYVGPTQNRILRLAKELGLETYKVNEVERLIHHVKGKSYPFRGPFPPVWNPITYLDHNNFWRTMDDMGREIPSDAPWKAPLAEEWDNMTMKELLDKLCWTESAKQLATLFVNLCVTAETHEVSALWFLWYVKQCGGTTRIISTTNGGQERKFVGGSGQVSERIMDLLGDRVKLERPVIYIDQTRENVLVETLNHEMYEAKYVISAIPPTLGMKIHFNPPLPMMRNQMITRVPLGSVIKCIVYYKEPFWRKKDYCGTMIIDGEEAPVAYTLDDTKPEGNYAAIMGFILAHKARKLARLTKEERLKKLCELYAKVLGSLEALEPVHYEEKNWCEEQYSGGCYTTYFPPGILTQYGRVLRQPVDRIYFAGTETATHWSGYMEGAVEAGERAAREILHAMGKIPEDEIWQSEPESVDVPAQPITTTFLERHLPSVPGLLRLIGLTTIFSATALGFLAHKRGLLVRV
Description: Inhibition of recombinant human MAOB using p-tyramine as substrate after 15 mins by Amplex Red dye-based fluorometric method

Acetylcholinesterase [5] = target: Acetylcholinesterase (Homo sapiens, UniProt P22303); assay: Inhibition of human AChE using acetylthiocholine iodide as substrate preincubated for 6 mins followed by substrate addition measured up to 180 secs by Ellman's method
[6] = target: Amyloid-beta precursor protein (Homo sapiens) (UniProt P05067); assay: Inhibition of self-induced amyloid beta (1 to 42) (unknown origin) aggregation at 20 uM after 46 to 48 hrs by thioflavin T-based fluorescence assay relative to control
Cholinesterase [7] = target: Cholinesterase (Equus caballus, UniProt P81908); assay: Inhibition of equine serum BuChE using S-butyrylthiocholine iodide as substrate preincubated for 6 mins followed by substrate addition measured up to 180 secs by Ellman's method
Acetylcholinesterase [8] = target: Acetylcholinesterase (Electrophorus electricus, UniProt O42275); assay: Inhibition of electric eel AChE using acetylthiocholine iodide as substrate preincubated for 6 mins followed by substrate addition measured up to 180 secs by Ellman's method
Homo sapiens [9] = species: Homo sapiens; assay: Selectivity index, ratio of IC50 for recombinant human MAOA to IC50 for recombinant human MAOB
Cholinesterase [10] = target: Cholinesterase (Homo sapiens, UniProt P06276)
Description: Inhibition of human serum BuChE using S-butyrylthiocholine iodide as substrate preincubated for 6 mins followed by substrate addition measured up to 180 secs by Ellman's method

[11] = target: Acetylcholinesterase (Electrophorus electricus) (UniProt O42275); assay: Potency index, ratio of IC50 for donepezil to IC50 for test compound for inhibition of electric eel AChE using acetylthiocholine iodide as substrate preincubated for 6 mins followed by substrate addition measured up to 180 secs by Ellman's method
[12] = target: T2, Amine oxidase [flavin-containing] B; assay: Inhibition of recombinant human MAOB at 10 uM using p-tyramine as substrate after 15 mins by resorufin dye-based fluorometric method relative to control; conditions: 0.25 h
[13] = target: T2, Amine oxidase [flavin-containing] B; assay: Reversible inhibition of recombinant human MAO-B assessed as enzyme activity recovery at 100 times IC50 using p-tyramine as substrate preincubated for 30 mins followed by 100 fold compound dilution by Amplex Red dye-based fluorometric method relative to control; design: scale not given: the % may be the effect or the level left
[14] = target: T2, Amine oxidase [flavin-containing] B; assay: Competitive inhibition of recombinant human MAOB up to 3 uM using p-tyramine as substrate after 15 mins by Lineweaver-burk plot method; conditions: 0.25 h
[15] = target: Acetylcholinesterase (Electrophorus electricus) (UniProt O42275); assay: Mixed type inhibition of electric eel AChE up to 80 nM using acetylthiocholine iodide as substrate preincubated for 6 mins followed by substrate addition measured up to 180 secs by Lineweaver-burk plot method
[16] = target: T2, Amine oxidase [flavin-containing] B; assay: Reversible inhibition of recombinant human MAO-B assessed as enzyme activity recovery at 10 times IC50 using p-tyramine as substrate preincubated for 30 mins followed by 100 fold compound dilution by Amplex Red dye-based fluorometric method relative to control; design: scale not given: the % may be the effect or the level left
[17] = target: T1, Amine oxidase [flavin-containing] A; assay: Inhibition of recombinant human MAOA using p-tyramine as substrate after 15 mins by Amplex Red dye-based fluorometric method

Sequence of Cholinesterase (Equus caballus, UniProt P81908) (P81908 whole entry): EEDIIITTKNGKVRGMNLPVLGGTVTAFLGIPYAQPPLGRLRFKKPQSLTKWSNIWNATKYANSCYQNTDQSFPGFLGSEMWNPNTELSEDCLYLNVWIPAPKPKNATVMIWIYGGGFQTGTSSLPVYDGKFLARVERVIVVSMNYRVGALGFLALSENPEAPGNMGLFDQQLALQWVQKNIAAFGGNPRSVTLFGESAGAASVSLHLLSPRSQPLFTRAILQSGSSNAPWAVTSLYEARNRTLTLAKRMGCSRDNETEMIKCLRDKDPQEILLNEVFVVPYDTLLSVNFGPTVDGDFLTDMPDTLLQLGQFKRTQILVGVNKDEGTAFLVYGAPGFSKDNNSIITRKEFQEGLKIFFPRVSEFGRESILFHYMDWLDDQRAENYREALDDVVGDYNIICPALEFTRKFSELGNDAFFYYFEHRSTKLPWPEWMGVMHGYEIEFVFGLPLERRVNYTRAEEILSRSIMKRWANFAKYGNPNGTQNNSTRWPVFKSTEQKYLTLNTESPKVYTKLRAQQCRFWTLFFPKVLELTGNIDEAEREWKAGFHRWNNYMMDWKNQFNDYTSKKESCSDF
Sequence of Acetylcholinesterase (Homo sapiens, UniProt P22303) (P22303 whole entry): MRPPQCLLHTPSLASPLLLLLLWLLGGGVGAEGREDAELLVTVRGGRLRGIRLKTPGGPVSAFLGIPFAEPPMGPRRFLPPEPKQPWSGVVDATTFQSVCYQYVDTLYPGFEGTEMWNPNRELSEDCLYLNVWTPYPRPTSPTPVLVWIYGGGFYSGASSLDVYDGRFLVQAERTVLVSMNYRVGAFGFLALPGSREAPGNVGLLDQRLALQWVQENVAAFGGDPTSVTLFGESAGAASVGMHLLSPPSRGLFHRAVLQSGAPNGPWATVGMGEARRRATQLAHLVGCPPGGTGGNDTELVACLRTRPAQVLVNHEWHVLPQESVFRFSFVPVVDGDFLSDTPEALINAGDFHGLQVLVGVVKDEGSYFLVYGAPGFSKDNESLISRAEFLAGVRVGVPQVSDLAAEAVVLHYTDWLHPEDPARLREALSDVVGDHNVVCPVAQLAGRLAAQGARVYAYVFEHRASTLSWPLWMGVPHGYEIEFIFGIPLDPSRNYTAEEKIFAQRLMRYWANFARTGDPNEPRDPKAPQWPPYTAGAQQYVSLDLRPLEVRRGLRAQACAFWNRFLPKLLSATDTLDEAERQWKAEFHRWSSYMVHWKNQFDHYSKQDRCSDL
Sequence of Acetylcholinesterase (Electrophorus electricus, UniProt O42275) (O42275 whole entry): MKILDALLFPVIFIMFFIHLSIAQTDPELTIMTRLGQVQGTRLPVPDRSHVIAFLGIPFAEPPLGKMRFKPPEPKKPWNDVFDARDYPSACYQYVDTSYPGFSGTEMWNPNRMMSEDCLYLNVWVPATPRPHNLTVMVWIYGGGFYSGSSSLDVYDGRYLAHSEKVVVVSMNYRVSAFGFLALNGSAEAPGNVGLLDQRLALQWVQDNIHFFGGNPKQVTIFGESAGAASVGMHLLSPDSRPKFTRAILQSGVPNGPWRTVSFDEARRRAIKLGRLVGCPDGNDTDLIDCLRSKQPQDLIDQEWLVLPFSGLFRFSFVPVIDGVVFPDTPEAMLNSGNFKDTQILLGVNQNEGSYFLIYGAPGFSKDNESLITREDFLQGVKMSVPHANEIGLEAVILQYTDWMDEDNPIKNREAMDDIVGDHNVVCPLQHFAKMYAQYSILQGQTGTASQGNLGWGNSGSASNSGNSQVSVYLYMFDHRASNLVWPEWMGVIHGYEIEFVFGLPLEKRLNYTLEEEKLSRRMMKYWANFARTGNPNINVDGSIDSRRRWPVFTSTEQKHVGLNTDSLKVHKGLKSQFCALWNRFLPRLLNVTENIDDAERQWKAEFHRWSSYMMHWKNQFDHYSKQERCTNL
Sequence of Acetylcholinesterase (Electrophorus electricus) (O42275 24-633 limits assumed): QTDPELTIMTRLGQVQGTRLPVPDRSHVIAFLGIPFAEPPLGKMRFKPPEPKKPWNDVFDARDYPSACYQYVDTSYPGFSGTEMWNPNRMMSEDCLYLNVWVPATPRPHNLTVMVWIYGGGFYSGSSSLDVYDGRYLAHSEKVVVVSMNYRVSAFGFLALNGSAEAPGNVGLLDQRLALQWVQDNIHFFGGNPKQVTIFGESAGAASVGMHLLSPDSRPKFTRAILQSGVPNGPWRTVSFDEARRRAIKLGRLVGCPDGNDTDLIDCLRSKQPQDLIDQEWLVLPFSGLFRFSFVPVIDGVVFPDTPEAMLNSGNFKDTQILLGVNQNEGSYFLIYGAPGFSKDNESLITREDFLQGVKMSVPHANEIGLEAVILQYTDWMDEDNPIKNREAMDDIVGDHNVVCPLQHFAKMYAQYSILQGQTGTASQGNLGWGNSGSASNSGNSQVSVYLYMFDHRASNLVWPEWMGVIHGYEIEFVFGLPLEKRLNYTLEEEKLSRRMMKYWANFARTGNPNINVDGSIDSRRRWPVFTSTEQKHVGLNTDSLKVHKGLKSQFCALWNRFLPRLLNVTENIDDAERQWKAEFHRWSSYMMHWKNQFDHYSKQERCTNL
Sequence of Amyloid-beta precursor protein (Homo sapiens) (P05067 whole entry): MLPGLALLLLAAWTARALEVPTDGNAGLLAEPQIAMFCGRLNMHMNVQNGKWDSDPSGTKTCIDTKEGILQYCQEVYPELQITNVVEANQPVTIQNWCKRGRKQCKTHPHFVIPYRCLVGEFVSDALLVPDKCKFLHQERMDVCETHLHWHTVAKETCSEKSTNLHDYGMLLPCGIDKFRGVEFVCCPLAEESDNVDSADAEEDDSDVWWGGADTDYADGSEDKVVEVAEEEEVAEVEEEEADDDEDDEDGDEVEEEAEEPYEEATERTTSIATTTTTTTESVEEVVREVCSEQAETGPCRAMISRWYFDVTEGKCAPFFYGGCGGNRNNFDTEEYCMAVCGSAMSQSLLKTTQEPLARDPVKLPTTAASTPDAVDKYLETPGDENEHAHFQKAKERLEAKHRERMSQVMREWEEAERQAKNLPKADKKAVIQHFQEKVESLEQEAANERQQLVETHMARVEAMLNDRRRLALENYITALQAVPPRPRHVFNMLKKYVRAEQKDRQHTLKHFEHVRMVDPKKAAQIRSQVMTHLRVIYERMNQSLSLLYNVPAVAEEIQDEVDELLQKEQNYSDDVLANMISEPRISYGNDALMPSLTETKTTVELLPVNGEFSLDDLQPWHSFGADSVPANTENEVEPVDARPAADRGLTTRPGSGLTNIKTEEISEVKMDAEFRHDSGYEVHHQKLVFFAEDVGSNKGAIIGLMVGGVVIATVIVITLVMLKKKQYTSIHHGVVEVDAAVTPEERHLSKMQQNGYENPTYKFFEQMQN
Sequence of Cholinesterase (Homo sapiens, UniProt P06276) (P06276 whole entry): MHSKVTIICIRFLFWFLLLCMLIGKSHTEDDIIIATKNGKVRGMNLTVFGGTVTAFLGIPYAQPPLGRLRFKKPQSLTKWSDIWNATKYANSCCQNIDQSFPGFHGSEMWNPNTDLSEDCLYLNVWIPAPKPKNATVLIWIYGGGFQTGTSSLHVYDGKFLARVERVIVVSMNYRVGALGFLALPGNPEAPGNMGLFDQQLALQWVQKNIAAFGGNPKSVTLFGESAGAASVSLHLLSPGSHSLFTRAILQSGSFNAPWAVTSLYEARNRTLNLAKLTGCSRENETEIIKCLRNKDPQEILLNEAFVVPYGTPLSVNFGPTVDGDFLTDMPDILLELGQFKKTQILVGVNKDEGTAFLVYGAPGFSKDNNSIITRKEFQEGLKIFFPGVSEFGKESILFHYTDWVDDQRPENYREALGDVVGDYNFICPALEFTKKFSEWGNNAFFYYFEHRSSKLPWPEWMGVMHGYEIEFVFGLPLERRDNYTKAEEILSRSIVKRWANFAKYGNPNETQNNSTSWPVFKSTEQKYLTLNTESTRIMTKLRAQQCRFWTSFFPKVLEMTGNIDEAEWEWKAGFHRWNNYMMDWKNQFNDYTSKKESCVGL

Compound | Ratio IC50 [1] | Activity (PC-12) | Ratio IC50 (Homo sapiens [2]) | inhibition at 10 µM [3] | IC50 [4] | IC50 (Acetylcholinesterase [5]) | inhibition [6] | IC50 (Cholinesterase [7]) | IC50 (Acetylcholinesterase [8]) | Ratio IC50 (Homo sapiens [9]) | IC50 (Cholinesterase [10]) | Ratio IC50 [11] | inhibition at 10 µM [12] | Activity [13] | inhibition (INH) [14] | inhibition [15] | Activity [16] | IC50 [17]
Cc1cc(=O)oc2cc(OCc3cc[n+](Cc4ccc(Br)cc4)cc3)ccc12.[Br-] | 41.1 | 98.5% | > 41.1 | 29.9% | 3.88 µM | 0.218 µM | 67.6% | 4.89 µM | 0.119 µM | > 2.58 | – | – | – | – | – | – | – | –
Cc1cc(=O)oc2cc(OCc3cc[n+](Cc4cccc([N+](=O)[O-])c4)cc3)ccc12.[Br-] | – | 98.4% | – | – | – | 0.23 µM | 42.8% | 4.37 µM | 0.0383 µM | – | – | – | – | – | – | – | – | –
Cc1cc(=O)oc2cc(O)ccc12 [HYMECROMONE] | – | – | – | – | – | – | – | > 100 µM | > 100 µM | – | – | – | – | – | – | – | – | –
Cc1cc(=O)oc2cc(OCc3cc[n+](Cc4ccccc4Br)cc3)ccc12.[Br-] | 13.2 | 97.6% | 106 | 15.1% | 3.99 µM | 0.0781 µM | 63.7% | 0.48 µM | 0.0367 µM | > 2.5 | 8.32 µM | – | – | – | – | – | – | –
Cc1cc(=O)oc2cc(OCc3cc[n+](Cc4ccc([N+](=O)[O-])cc4)cc3)ccc12.[Br-] | > 8.4 | 99.5% | > 9.3 | 18.6% | 6.89 µM | 1.08 µM | 37.7% | – | 1.19 µM | > 1.45 | – | – | – | – | – | – | – | –
Cc1ccccc1C[n+]1ccc(COc2ccc3c(C)cc(=O)oc3c2)cc1.[Br-] | 64.7 | 97.1% | > 282 | 13.9% | 3.16 µM | 0.0354 µM | 55.2% | 1.61 µM | 0.0249 µM | > 3.16 | – | 1.9 | – | – | – | – | – | –
Cc1cc(=O)oc2cc(OCc3cc[n+](Cc4cccc(Br)c4)cc3)ccc12.[Br-] | 69.8 | 96.8% | > 77.8 | 44.6% | 2.19 µM | 0.129 µM | 62.7% | 4.41 µM | 0.0632 µM | > 4.56 | – | – | – | – | – | – | – | –
Cc1cc(=O)oc2cc(OCc3cc[n+](Cc4ccccc4F)cc3)ccc12.[Br-] | 55.6 | 100.8% | > 153 | 11.5% | 4.21 µM | 0.0653 µM | 53.7% | 1.64 µM | 0.0295 µM | > 2.37 | – | – | – | – | – | – | – | –
Cc1cc(=O)oc2cc(OCc3cc[n+](Cc4ccccc4)cc3)ccc12.[Br-] | 11.2 | 97.5% | > 28.4 | 5.04% | – | 0.352 µM | 39.3% | 4.24 µM | 0.38 µM | 6.92 | – | – | 34.9% | – | – | – | – | –
Cc1cc(=O)oc2cc(OCc3cc[n+](Cc4cccc(F)c4)cc3)ccc12.[Br-] | 106 | 99.6% | > 240 | 34.3% | 2.87 µM | 0.0416 µM | 50.8% | 2.74 µM | 0.0259 µM | > 3.48 | – | 1.9 | – | – | – | – | – | –
Cc1ccc(C[n+]2ccc(COc3ccc4c(C)cc(=O)oc4c3)cc2)cc1.[Br-] | 56.3 | 99.4% | > 40 | 9.05% | 3.9 µM | 0.25 µM | 58.5% | 7.66 µM | 0.136 µM | > 2.56 | – | – | – | – | – | – | – | –
Cc1cccc(C[n+]2ccc(COc3ccc4c(C)cc(=O)oc4c3)cc2)c1.[Br-] | 62.2 | 101.5% | > 120 | 14.8% | 1.57 µM | 0.0836 µM | 62.1% | 2.32 µM | 0.0373 µM | > 6.37 | – | – | – | 47% | Active | Active | 86% | –
Cc1cc(=O)oc2cc(OCc3cc[n+](Cc4ccc(F)cc4)cc3)ccc12.[Br-] | 101 | 94.8% | > 271 | – | 10 µM | 0.0369 µM | 49.1% | 2.95 µM | 0.0291 µM | 0.46 | – | – | – | – | – | – | – | 4.6 µM

From ChEMBL document CHEMBL4190307, “Design, synthesis and biological evaluation of novel coumarin-N-benzyl pyridinium hybrids as multi-target agents for the treatment of Alzheimer's disease” (Eur J Med Chem, 2017)
